In patent publication EP1935887A1, “Heterocyclic substituted carbonyl derivatives and their use as dopamine D3 receptor ligands” (Aventis Pharmaceuticals Inc., priority 2001, dated 2002):

Target: T1, Cloned Human Dopamine D3 Receptors (Homo sapiens, UniProt P35462)
T1 construct: expressed in transfected cells; membrane homogenate
Assay: [N-Methyl-3H]Spiroperidol binding to cloned human dopamine D3 receptors
Settings: Table 2; unit inferred; read-out: d3Ki
Outline: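 [N-methyl-3H]spiroperidol binding is run in Tris buffer, pH 7.7. Receptor source is membranes of a stably transfected, high-expressing CHO clone carrying the human D3 gene, kept at -80°C in 10% DMSO.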

T1 sequence (P35462 whole entry): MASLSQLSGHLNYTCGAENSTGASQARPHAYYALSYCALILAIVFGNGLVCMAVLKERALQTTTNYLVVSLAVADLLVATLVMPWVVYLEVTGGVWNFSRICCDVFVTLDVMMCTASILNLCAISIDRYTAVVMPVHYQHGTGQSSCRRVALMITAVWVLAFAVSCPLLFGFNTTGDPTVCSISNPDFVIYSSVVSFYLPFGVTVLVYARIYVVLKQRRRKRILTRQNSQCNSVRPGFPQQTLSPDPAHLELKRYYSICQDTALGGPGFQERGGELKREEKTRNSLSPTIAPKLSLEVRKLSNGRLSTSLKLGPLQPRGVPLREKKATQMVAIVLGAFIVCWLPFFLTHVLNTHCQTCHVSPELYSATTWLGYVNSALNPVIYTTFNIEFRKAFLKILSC

Row | SMILES | Ki [nM]
1 | COc1ccc(CNC(=O)[C@@H]2C[C@H]2CN2CCN(c3csc4cc(C(F)(F)F)ccc34)CC2)c(OC)c1 [compound 826077] | 88.9
2 | O=C(Nc1cccc2c1CCCC2)[C@@H]1C[C@H]1CN1CCN(c2csc3cc(C(F)(F)F)ccc23)CC1 [compound 826078] | 162
3 | COc1cc(CNC(=O)[C@@H]2C[C@H]2CN2CCN(c3csc4cc(C(F)(F)F)ccc34)CC2)cc(OC)c1OC [compound 826079] | 106
4 | O=C(NCCc1ccccn1)[C@@H]1C[C@H]1CN1CCN(c2csc3cc(C(F)(F)F)ccc23)CC1 [compound 826080] | 14.8
5 | O=C(NC1CCCCCCCC1)[C@@H]1C[C@H]1CN1CCN(c2csc3cc(C(F)(F)F)ccc23)CC1 [compound 826655] | 31
6 | O=C(NCCN1CCOCC1)[C@@H]1C[C@H]1CN1CCN(c2csc3cc(C(F)(F)F)ccc23)CC1 [compound 826656] | 45
7 | O=C(NC1CCCC1)[C@@H]1C[C@H]1CN1CCN(c2csc3cc(C(F)(F)F)ccc23)CC1 [compound 826658] | 17

Same assay, conditions: Table 2 part the 10th table; read-out: d3Ki

Row | SMILES | Ki [nM]
8 | O=C([C@@H]1C[C@H]1CN1CCN(c2csc3cc(C(F)(F)F)ccc23)CC1)N1CCCCC1 [compound 826081] | 18.6
9 | O=C([C@@H]1CCCC[C@@H]1CN1CCN(c2csc3cc(C(F)(F)F)ccc23)CC1)N1CCCCC1 [compound 826119] | 219
10 | O=C([C@@H]1C[C@H]1CN1CCN(c2csc3cc(C(F)(F)F)ccc23)CC1)N1CCCC1 [compound 826657] | 14
11 | CCOC(=O)C1CN(C(=O)[C@@H]2C[C@H]2CN2CCN(c3csc4cc(C(F)(F)F)ccc34)CC2)CCC1=O (stereo partly shown) [compound 826659] | 140
12 | O=C([C@@H]1C[C@H]1CN1CCN(c2csc3cc(C(F)(F)F)ccc23)CC1)N1CCC(O)CC1 [compound 826660] | 53
13 | NC(=O)C1CCN(C(=O)[C@@H]2C[C@H]2CN2CCN(c3csc4cc(C(F)(F)F)ccc34)CC2)CC1 [compound 826661] | 25
14 | O=C([C@@H]1C[C@H]1CN1CCN(c2csc3cc(C(F)(F)F)ccc23)CC1)N1CCC(Cc2ccccc2)CC1 [compound 826662] | 69
15 | O=C([C@@H]1C[C@H]1CN1CCN(c2csc3cc(F)ccc23)CC1)N1CCCC1 [compound 826669] | 0.24
16 | CCOC(=O)C1CN(C(=O)[C@@H]2C[C@H]2CN2CCN(c3csc4cc(F)ccc34)CC2)CCC1=O (stereo partly shown) [compound 826671] | 6.8
17 | O=C([C@@H]1C[C@H]1CN1CCN(c2csc3cc(F)ccc23)CC1)N1CCC(Cc2ccccc2)CC1 [compound 826673] | 7.9
18 | N#CC1(c2ccccc2)CCN(C(=O)[C@@H]2C[C@H]2CN2CCN(c3csc4cc(F)ccc34)CC2)CC1 [compound 826674] | 48
19 | CC1CCCC(C)N1C(=O)[C@@H]1C[C@H]1CN1CCN(c2csc3cc(F)ccc23)CC1 (stereo partly shown) [compound 826675] | 8
20 | O=C([C@@H]1C[C@H]1CN1CCN(c2csc3cc(F)ccc23)CC1)N1CCCCC1 [compound 826676] | 2

Same assay, conditions: d3Ki, Table 2 part the 10th table

Row | SMILES | Ki [nM]
21 | O=C([C@@H]1C[C@H]1CN1CCN(c2csc3cc(C(F)(F)F)ccc23)CC1)N1CCC(N2CCCC2)CC1 [compound 826664] | 9.4
22 | O=C([C@@H]1C[C@H]1CN1CCN(c2csc3cc(F)ccc23)CC1)N1CCC(O)CC1 [compound 826672] | 0.64

Same assay, conditions: read-out: d3Ki

Row | SMILES | Ki [nM]
23 | CN(C)c1ccc(CNC(=O)[C@@H]2CCCC[C@H]2CN2CCN(c3csc4cc(C(F)(F)F)ccc34)CC2)cc1 [compound 826086] | 103
24 | Cc1cccc(CNC(=O)[C@@H]2CCCC[C@H]2CN2CCN(c3csc4cc(C(F)(F)F)ccc34)CC2)c1 [compound 826092] | 293
25 | O=C(NCc1ccc2c(c1)OCO2)[C@@H]1CCCC[C@H]1CN1CCN(c2csc3cc(C(F)(F)F)ccc23)CC1 [compound 826098] | 451
26 | O=C(Nc1cccnc1)[C@@H]1CCCC[C@H]1CN1CCN(c2csc3cc(C(F)(F)F)ccc23)CC1 [compound 826100] | 193
27 | O=C(NCc1nc2ccccc2[nH]1)[C@@H]1CCCC[C@@H]1CN1CCN(c2csc3cc(C(F)(F)F)ccc23)CC1 [compound 826102] | 210
28 | CN(C)c1ccc(CNC(=O)[C@@H]2CCCC[C@@H]2CN2CCN(c3csc4cc(C(F)(F)F)ccc34)CC2)cc1 [compound 826104] | 16.8
29 | O=C(NC1CC1)[C@@H]1CCCC[C@@H]1CN1CCN(c2csc3cc(C(F)(F)F)ccc23)CC1 [compound 826105] | 690
30 | O=C(NCc1ccccc1)[C@@H]1CCCC[C@@H]1CN1CCN(c2csc3cc(C(F)(F)F)ccc23)CC1 [compound 826106] | 230
31 | O=C(NCc1ccc(C(F)(F)F)cc1)[C@@H]1CCCC[C@@H]1CN1CCN(c2csc3cc(C(F)(F)F)ccc23)CC1 [compound 826108] | 100
32 | O=C(NC1CCCCC1)[C@@H]1CCCC[C@@H]1CN1CCN(c2csc3cc(C(F)(F)F)ccc23)CC1 [compound 826113] | 200
33 | O=C(NCc1ccc2c(c1)OCO2)[C@@H]1CCCC[C@@H]1CN1CCN(c2csc3cc(C(F)(F)F)ccc23)CC1 [compound 826115] | 72.3
34 | COc1cc(CNC(=O)[C@@H]2CCCC[C@@H]2CN2CCN(c3csc4cc(C(F)(F)F)ccc34)CC2)cc(OC)c1OC [compound 826116] | 59.9
35 | O=C(NCCc1ccccn1)[C@@H]1CCCC[C@@H]1CN1CCN(c2csc3cc(C(F)(F)F)ccc23)CC1 [compound 826117] | 241
36 | O=C(Nc1cccnc1)[C@@H]1CCCC[C@@H]1CN1CCN(c2csc3cc(C(F)(F)F)ccc23)CC1 [compound 826118] | 568
37 | O=C(NCc1ccccn1)[C@@H]1CCCC[C@H]1CN1CCN(c2csc3cc(C(F)(F)F)ccc23)CC1 [compound 826120] | 487
38 | O=C(NC1CC1)[C@@H]1CCCC[C@H]1CN1CCN(c2csc3cc(C(F)(F)F)ccc23)CC1 [compound 826121] | 502
39 | O=C(NCc1ccco1)[C@@H]1CCCC[C@@H]1CN1CCN(c2csc3cc(C(F)(F)F)ccc23)CC1 [compound 826122] | 130
40 | C[C@H]1CC[C@H](NC(=O)[C@@H]2C[C@H]2CN2CCN(c3csc4cc(F)ccc34)CC2)CC1 [compound 826665] | 1.9
41 | COC(=O)[C@H]1CC[C@H](NC(=O)[C@@H]2C[C@H]2CN2CCN(c3csc4cc(F)ccc34)CC2)CC1 [compound 826666] | 6.3
42 | CC[C@H]1CC[C@H](NC(=O)[C@@H]2C[C@H]2CN2CCN(c3csc4cc(F)ccc34)CC2)CC1 [compound 826667] | 2.5
43 | O=C(NC1CCCCCCCC1)[C@@H]1C[C@H]1CN1CCN(c2csc3cc(F)ccc23)CC1 [compound 826668] | 3.9
44 | O=C(NC1CCCC1)[C@@H]1C[C@H]1CN1CCN(c2csc3cc(F)ccc23)CC1 [compound 826670] | 4.2
45 | O=C(NC1CCCCC1)[C@@H]1C[C@H]1CN1CCN(c2csc3cc(F)ccc23)CC1 [compound 826677] | 2.3
46 | CCOC(=O)[C@H]1CC[C@H](NC(=O)[C@@H]2C[C@H]2CN2CCCN(c3csc4cc(C(F)(F)F)ccc34)CC2)CC1 [compound 826679] | 9.1
47 | CC[C@H]1CC[C@H](NC(=O)[C@@H]2C[C@H]2CN2CCCN(c3csc4cc(C(F)(F)F)ccc34)CC2)CC1 [compound 826680] | 58
48 | O=C(NC1CCCCCCCC1)[C@@H]1C[C@H]1CN1CCCN(c2csc3cc(C(F)(F)F)ccc23)CC1 [compound 826681] | 48
49 | O=C(NCCN1CCOCC1)[C@@H]1C[C@H]1CN1CCCN(c2csc3cc(C(F)(F)F)ccc23)CC1 [compound 826682] | 103
